# Measured values published in patent publication US20230248834A1, “DEGRADATION OF (EGFR) BY CONJUGATION OF EGFR INHIBITORS WITH E3 LIGASE LIGAND AND METHODS OF USE” (BEIGENE, LTD., priority 2020, published 2023).
# Target: T1, EGFR L858R/T790M/C797S (Homo sapiens, UniProt P00533, C797S/L858R/T790M)
# T1 construct: expressed in transfected cells; host or cells: BaF3-LTC
# Experiment: EGFR degradation HTRF assay in BaF3-LTC cells
# Type: cell-based
# Conditions: BaF3-LTC (L858R/T790M/C797S), maximum percentage of inhibition (degradation); read-out: BaF3-LTC Dmax (%)
# Experimental: BaF3-LTC(L858R/T790M/C797S) cells and BaF3 LC(L858R/C797S) cells are treated with compounds diluted in 0.2% DMSO cell culture medium and incubate for 16 h, 37° C., 5% CO2. the final concentration of compounds in all assay is start with 10 uM, 5-fold dilution, total 8 doses were included.
# After 16 h treatment, add HTRF lysis buffer to each well; seal the plate and incubate 1 hour at room temperature on a plate shaker; Once the cells are lysed, 16 μL of cell lysate are transferred to a PE 384-well HTRF detection plate; 4 μL of pre-mixed HTRF antibodies are added to each well; Cover the plate with a plate sealer, spin 1000 rpm for 1 min, Incubate overnight at room temperature; Read on BMG PheraStar with HTRF protocol (337 nm-665 nm-620 nm).
# The inhibition (degradation) percentage of the compound was calculated by the following equation: Inhibition percentage of Compound=100−100×(Signal−low control)/(High control−low control), wherein signal=each test compound group
# High control=Cell group with added DMSO and without compound, indicating microplate readings without EGFR degradation;
# Dmax is the maximum percentage of inhibition (degradation).
# The IC50 (DC50) value of a compound can be obtained by fitting the following equation
# Y=Bottom+(TOP−Bottom)/(1+((IC50/X)^hillslope))
# Wherein, X and Y are known values, and IC50, Hillslope, Top and Bottom are the parameters obtained by fitting with software. Y is the inhibition percentage (calculated from the equation), X is the concentration of the compound; IC50 is the concentration of the compound when the 50% inhibition is reached. The smaller the IC50 value is, the stronger the inhibitory ability of the compound is. Vice versa, the higher the IC50 value is, the weaker the inhibitory ability of the compound is; Hillslope represents the slope of the fitted curve, generally around 1*; Bottom represents the minimum value of the curve obtained by data fitting, which is generally 0%±20%; Top represents the maximum value of the curve obtained by data fitting, which is generally 100%±20%. The experimental data were fitted by calculating and analyzing with Dotmatics data analysis software.
# T1 sequence (P00533 25-1210 T790M/C797S/L858R): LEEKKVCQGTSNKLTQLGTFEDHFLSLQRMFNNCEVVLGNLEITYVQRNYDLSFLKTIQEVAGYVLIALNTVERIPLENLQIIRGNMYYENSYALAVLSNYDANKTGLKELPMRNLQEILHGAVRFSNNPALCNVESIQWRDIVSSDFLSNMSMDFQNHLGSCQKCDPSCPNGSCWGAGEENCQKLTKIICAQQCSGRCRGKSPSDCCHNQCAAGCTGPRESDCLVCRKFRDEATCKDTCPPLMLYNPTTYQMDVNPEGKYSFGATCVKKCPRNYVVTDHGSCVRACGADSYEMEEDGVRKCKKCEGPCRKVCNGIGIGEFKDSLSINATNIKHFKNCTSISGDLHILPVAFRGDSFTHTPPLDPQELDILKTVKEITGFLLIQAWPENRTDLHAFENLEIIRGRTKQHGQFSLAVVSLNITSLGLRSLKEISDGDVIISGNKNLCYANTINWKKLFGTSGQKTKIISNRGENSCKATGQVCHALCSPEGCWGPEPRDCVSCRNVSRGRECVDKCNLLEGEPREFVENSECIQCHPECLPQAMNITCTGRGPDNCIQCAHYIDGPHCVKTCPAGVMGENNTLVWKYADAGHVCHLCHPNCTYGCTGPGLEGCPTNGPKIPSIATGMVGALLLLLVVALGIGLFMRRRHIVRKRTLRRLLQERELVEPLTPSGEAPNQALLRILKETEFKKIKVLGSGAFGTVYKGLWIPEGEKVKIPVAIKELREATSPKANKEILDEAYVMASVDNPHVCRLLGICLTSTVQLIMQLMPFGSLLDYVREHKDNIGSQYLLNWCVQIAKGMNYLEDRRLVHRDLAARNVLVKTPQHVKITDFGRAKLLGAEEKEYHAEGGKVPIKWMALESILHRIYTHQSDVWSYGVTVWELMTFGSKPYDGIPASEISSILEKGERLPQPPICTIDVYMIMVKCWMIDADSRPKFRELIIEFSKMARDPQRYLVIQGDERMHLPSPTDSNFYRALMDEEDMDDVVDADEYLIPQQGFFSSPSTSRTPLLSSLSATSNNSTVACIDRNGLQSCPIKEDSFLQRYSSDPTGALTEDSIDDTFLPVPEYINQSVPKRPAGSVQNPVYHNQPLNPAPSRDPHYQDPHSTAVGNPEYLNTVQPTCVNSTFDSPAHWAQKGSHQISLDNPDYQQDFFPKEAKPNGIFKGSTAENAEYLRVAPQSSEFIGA
row,SMILES,Dmax [%]
1,"CCc1cc(Nc2ncc(Br)c(Nc3ccc4nc(C)ncc4c3P(C)(C)=O)n2)c(OC)cc1N1CCC(N2CCN(CCc3cc(F)c([C@H]4CCC(=O)NC4=O)c(F)c3)CC2)CC1 [Example 739, (R)-3-(4-(2-(4-(1-(4-((5-bromo-4-((5-(dimethylphosphoryl)-2-methylquinazolin-6-yl)amino)pyrimidin-2-yl)amino)-2-ethyl-5-methoxyphenyl)piperidin-4-yl)piperazin-1-yl)ethyl)-2,6-difluorophenyl)piperidine-2,6-dione]",95.7
2,"CCOc1cc(N2CCC(N3CCN(CCc4cc(F)c([C@H]5CCC(=O)NC5=O)c(F)c4)CC3)CC2)c(CC)cc1Nc1nccc(Nc2ccc3nc(CC)ncc3c2P(C)(C)=O)n1 [Example 749, (R)-3-(4-(2-(4-(1-(4-((4-((5-(dimethylphosphoryl)-2-ethylquinazolin-6-yl)amino)pyrimidin-2-yl)amino)-5-ethoxy-2-ethylphenyl)piperidin-4-yl)piperazin-1-yl)ethyl)-2,6-difluorophenyl)piperidine-2,6-dione]",35.9
3,"CCOc1cc(N2CCC(N3CCN(CCc4c(F)ccc5c4n(CC)c(=O)n5C4CCC(=O)NC4=O)CC3)CC2)c(CC)cc1Nc1ncc(Br)c(Nc2ccc3nc(CC)ccc3c2P(C)(C)=O)n1 (stereo not drawn) [Example 558, 3-(4-(2-(4-(1-(4-((5-bromo-4-((5-(dimethylphosphoryl)-2-ethylquinolin-6-yl)amino)pyrimidin-2-yl)amino)-5-ethoxy-2-ethylphenyl)piperidin-4-yl)piperazin-1-yl)ethyl)-3-ethyl-5-fluoro-2-oxo-2,3-dihydro-1H-benzo[d]imidazol-1-yl)piperidine-2,6-dione]",95.9
4,"CCOc1cc(N2CCC(N3CCN(CCc4c(F)ccc5c4n(C)c(=O)n5C4CCC(=O)NC4=O)CC3)CC2)c(CC)cc1Nc1ncc(Br)c(Nc2ccc3nc(CC)ncc3c2P(C)(C)=O)n1 (stereo not drawn) [Example 736, 3-(4-(2-(4-(1-(4-((5-bromo-4-((5-(dimethylphosphoryl)-2-ethylquinazolin-6-yl)amino)pyrimidin-2-yl)amino)-5-ethoxy-2-ethylphenyl)piperidin-4-yl)piperazin-1-yl)ethyl)-5-fluoro-3-methyl-2-oxo-2,3-dihydro-1H-benzo[d]imidazol-1-yl)piperidine-2,6-dione]",97
5,"COc1cc(N2CCC(N3CCN(C(=O)[C@@H]4CCN(c5cc(F)c([C@H]6CCC(=O)NC6=O)c(F)c5)C4)CC3)CC2)c(C)cc1Nc1ncc(Br)c(Nc2ccc3nc(C)c(F)cc3c2P(C)(C)=O)n1 [Example 732, (R)-3-(4-((R)-3-(4-(1-(4-((5-bromo-4-((5-(dimethylphosphoryl)-3-fluoro-2-methylquinolin-6-yl)amino)pyrimidin-2-yl)amino)-5-methoxy-2-methylphenyl)piperidin-4-yl)piperazine-1-carbonyl)pyrrolidin-1-yl)-2,6-difluorophenyl)piperidine-2,6-dione]",95.5
6,"CCc1cc(Nc2ncc(Br)c(Nc3ccc4nc(C)ncc4c3P(C)(C)=O)n2)c(OC)cc1N1CCC(N2CCN(C(=O)[C@H]3CN(c4cc(F)c([C@H]5CCC(=O)NC5=O)c(F)c4)CC3(C)C)CC2)CC1 [Example 740, (R)-3-(4-((R)-4-(4-(1-(4-((5-bromo-4-((5-(dimethylphosphoryl)-2-methylquinazolin-6-yl)amino)pyrimidin-2-yl)amino)-2-ethyl-5-methoxyphenyl)piperidin-4-yl)piperazine-1-carbonyl)-3,3-dimethylpyrrolidin-1-yl)-2,6-difluorophenyl)piperidine-2,6-dione]",97.2
7,"CCOc1cc(N2CCC(N3CCN(C(=O)[C@H]4CN(c5cc(F)c([C@H]6CCC(=O)NC6=O)c(F)c5)CC4(C)C)CC3)CC2)c(CC)cc1Nc1ncc(Br)c(Nc2ccc3nc(C)ccc3c2P(C)(C)=O)n1 [Example 747, (R)-3-(4-((R)-4-(4-(1-(4-((5-bromo-4-((5-(dimethylphosphoryl)-2-methylquinolin-6-yl)amino)pyrimidin-2-yl)amino)-5-ethoxy-2-ethylphenyl)piperidin-4-yl)piperazine-1-carbonyl)-3,3-dimethylpyrrolidin-1-yl)-2,6-difluorophenyl)piperidine-2,6-dione]",96.2

# Next, values leading:
row,Dmax [%],SMILES
1,83.7,"CCOc1cc(N2CCC(N3CCN(CCc4cc(F)c([C@H]5CCC(=O)NC5=O)c(F)c4)CC3)CC2)c(CC)cc1Nc1ncc(Cl)c(Nc2cc(F)c3nc(CC)ccc3c2P(C)(C)=O)n1 [Example 730, (R)-3-(4-(2-(4-(1-(4-((5-chloro-4-((5-(dimethylphosphoryl)-2-ethyl-8-fluoroquinolin-6-yl)amino)pyrimidin-2-yl)amino)-5-ethoxy-2-ethylphenyl)piperidin-4-yl)piperazin-1-yl)ethyl)-2,6-difluorophenyl)piperidine-2,6-dione]"
2,91.7,"[2H]C1([2H])CC([2H])(c2c(F)cc(CCN3CCN(C4CCN(c5cc(OCC)c(Nc6ncc(Br)c(Nc7ccc8nc(C)ccc8c7P(C)(C)=O)n6)cc5CC)CC4)CC3)cc2F)C(=O)NC1=O (stereo not drawn) [Example 570, 3-(4-(2-(4-(1-(4-((5-bromo-4-((5-(dimethylphosphoryl)-2-methylquinolin-6-yl)amino)pyrimidin-2-yl)amino)-5-ethoxy-2-ethylphenyl)piperidin-4-yl)piperazin-1-yl)ethyl)-2,6-difluorophenyl)piperidine-2,6-dione-3,5,5-d3]"
3,96.6,"CCc1cc(Nc2ncc(Br)c(Nc3ccc4nc(C5CC5)ccc4c3P(C)(C)=O)n2)c(OC)cc1N1CCC(N2CCN(CCc3cc(F)c([C@H]4CCC(=O)NC4=O)c(F)c3)CC2)CC1 [Example 741, (R)-3-(4-(2-(4-(1-(4-((5-bromo-4-((2-cyclopropyl-5-(dimethylphosphoryl)quinolin-6-yl)amino)pyrimidin-2-yl)amino)-2-ethyl-5-methoxyphenyl)piperidin-4-yl)piperazin-1-yl)ethyl)-2,6-difluorophenyl)piperidine-2,6-dione]"
4,97.5,"CCOc1cc(N2CCC(N3CCN(C(=O)[C@H]4CN(c5cc(F)c([C@H]6CCC(=O)NC6=O)c(F)c5)CC4(C)C)CC3)CC2)c(C)cc1Nc1ncc(Br)c(Nc2ccc3nc(C)ccc3c2P(C)(C)=O)n1 [Example 727, (R)-3-(4-((R)-4-(4-(1-(4-((5-bromo-4-((5-(dimethylphosphoryl)-2-methylquinolin-6-yl)amino)pyrimidin-2-yl)amino)-5-ethoxy-2-methylphenyl)piperidin-4-yl)piperazine-1-carbonyl)-3,3-dimethylpyrrolidin-1-yl)-2,6-difluorophenyl)piperidine-2,6-dione]"
5,95.5,"CCOc1cc(N2CCC(N3CCN(C(=O)[C@H]4CN(c5cc(F)c([C@H]6CCC(=O)NC6=O)c(F)c5)CC4(C)C)CC3)CC2)c(CC)cc1Nc1ncc(Br)c(Nc2cc(F)c3nc(CC)ccc3c2P(C)(C)=O)n1 [Example 746, (R)-3-(4-((R)-4-(4-(1-(4-((5-bromo-4-((5-(dimethylphosphoryl)-2-ethyl-8-fluoroquinolin-6-yl)amino)pyrimidin-2-yl)amino)-5-ethoxy-2-ethylphenyl)piperidin-4-yl)piperazine-1-carbonyl)-3,3-dimethylpyrrolidin-1-yl)-2,6-difluorophenyl)piperidine-2,6-dione]"
